These results are taken from ChEMBL document CHEMBL1201862, “PubChem BioAssay data set” (2004).

Molecules are shown by their SMILES.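 Following 48 hours of exposure in 96-well plates, responses at five concentrations were used to interpolate endpoints linearly. Abbreviation: GI50, concentration required for 50% inhibition of growth.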 Activity calls are given as the source filed them. Cut-off read from the data, not from the text of the source: active = GI50 up to about 1.1 µM and inactive = higher. Where only a bound is given, the exact number is not on record here.

Test systems include UACC-257; HL-60; NCI-H23; 786-0; A549; RXF 393; HOP-62; HCC 2998; SW-620; Malme-3M; NCI-H460; SF-295; KM12; UO-31; SNB-19; OVCAR-8; ACHN; A498.
Common to all, as to assay: NCI anticancer screen, dose series, 48 h

Turning to `CNCCCCN(C)/[N+]([O-])=N\O`, the GI50 with UACC-257, with HL-60, in the experiment on NCI-H23, in the experiment with 786-0, in the experiment with A549 and with RXF 393 was > 100 µM (inactive) each time. Besides, the GI50 in the experiment with HOP-62, with HCC 2998, with SW-620, with Malme-3M, in the experiment with NCI-H460 and in the experiment with SF-295 was > 100 µM (inactive) throughout. Also, the GI50 in the experiment with KM12, with UO-31, in the experiment on SNB-19, in the experiment with OVCAR-8 and with ACHN was > 100 µM (inactive) each time.

As to `CCOC(=O)C1C(=S)NC(=O)C1C#N` (stereo unspecified), the GI50 with UACC-257, in the experiment on HL-60, in the experiment with NCI-H23, in the experiment on 786-0, in the experiment on A549 and in the experiment with RXF 393 was > 100 µM (inactive) throughout. Moreover, the GI50 in the experiment with HOP-62, with HCC 2998, in the experiment on SW-620, in the experiment on Malme-3M, with NCI-H460 and in the experiment with SF-295 was > 100 µM (inactive) each time. In addition, the GI50 in the experiment on KM12, with UO-31, in the experiment with SNB-19, with OVCAR-8 and in the experiment on ACHN was > 100 µM (inactive) throughout.

For `O=c1cc2ccccc2nn1Cc1cccc(Cl)c1`, the GI50 in the experiment on UACC-257 is > 100 µM (inactive); in the experiment on NCI-H23 it was 57.3 µM (inactive); in the experiment with 786-0, > 100 µM (inactive); in the experiment on A549, 49.8 µM (inactive); in the experiment with HOP-62, > 100 µM (inactive); with A498 it was > 100 µM (inactive). For the same molecule, the GI50 with HCC 2998 was > 100 µM (inactive); with SW-620, 92.5 µM (inactive); in the experiment on Malme-3M, > 100 µM (inactive); in the experiment on NCI-H460, > 100 µM (inactive); in the experiment on SF-295 it was > 100 µM (inactive); in the experiment with KM12, > 100 µM (inactive). For the same molecule, the GI50 is 37.5 µM (inactive) in the experiment on UO-31, > 100 µM (inactive) in the experiment on SNB-19, 73.3 µM (inactive) in the experiment on OVCAR-8 and > 100 µM (inactive) in the experiment on ACHN.

In the case of `Cc1c2cc[n+](C)cc2c(C)c2c1[nH]c1ccc(OCC(F)(F)F)cc12`, the GI50 in the experiment on NCI-H23 is 1.23 µM (inactive); in the experiment on 786-0, 0.378 µM (active); in the experiment with A549, 1.53 µM (inactive); in the experiment with HOP-62 it was 0.789 µM (active); in the experiment with HCC 2998, 5.05 µM (inactive); in the experiment on SW-620, 3.35 µM (inactive). For the same molecule, the GI50 with Malme-3M was 2.02 µM (inactive); in the experiment on NCI-H460, 1.85 µM (inactive); in the experiment on SF-295, 0.327 µM (active); in the experiment on KM12, 2.53 µM (inactive); in the experiment with SNB-19, 0.817 µM (active); with OVCAR-8, 0.798 µM (active).

For `CC(C)(c1cn(Cc2ccccc2)c2ccccc12)c1cn(Cc2ccccc2)c2ccccc12`, the GI50 in the experiment on HL-60, in the experiment on NCI-H23, with 786-0, with A549, in the experiment on HOP-62 and with SW-620 was > 100 µM (inactive) in each case. Moreover, the GI50 with Malme-3M is 1.94 µM (inactive); in the experiment with NCI-H460, > 100 µM (inactive); with SF-295 it was > 100 µM (inactive); in the experiment with KM12, > 100 µM (inactive); with OVCAR-8 it was > 100 µM (inactive); in the experiment with ACHN, > 100 µM (inactive).

As for `Nc1ncnc2sc(Nc3ccccc3)nc12`, the GI50 in the experiment with UACC-257 was > 100 µM (inactive); in the experiment on HL-60 it was 2.54 µM (inactive); with NCI-H23, 48.3 µM (inactive); with 786-0, 26.5 µM (inactive); with A549, > 100 µM (inactive); in the experiment with HOP-62 it was 81.7 µM (inactive). For the same molecule, the GI50 in the experiment with HCC 2998, in the experiment on SW-620, with Malme-3M, with NCI-H460, in the experiment with SF-295 and in the experiment with KM12 was > 100 µM (inactive) in each case. Moreover, the GI50 in the experiment on UO-31 was 45.8 µM (inactive); in the experiment with SNB-19, > 100 µM (inactive); with OVCAR-8 it was > 100 µM (inactive); in the experiment with ACHN, 12.3 µM (inactive).

Take `O=C(Nc1c(O)[nH]c(=S)[nH]c1=O)c1ccccn1`: the GI50 in the experiment on UACC-257, in the experiment on HL-60, in the experiment with NCI-H23, with 786-0, in the experiment with A549 and in the experiment on HOP-62 was > 100 µM (inactive) throughout. The GI50 in the experiment on A498, in the experiment with SW-620, in the experiment on Malme-3M, with NCI-H460, in the experiment on SF-295 and in the experiment on KM12 was > 100 µM (inactive) each time. The GI50 in the experiment on UO-31, in the experiment with SNB-19, with OVCAR-8 and in the experiment on ACHN was > 100 µM (inactive) each time.

Consider `CN(C)c1ccc(/C=c2/sc3nc(=O)c(-c4ccccc4NC(=O)C(F)(F)F)nn3c2=O)cc1`, for which the GI50 in the experiment on NCI-H23 is 67.6 µM (inactive); in the experiment on 786-0, > 100 µM (inactive); in the experiment on A549 it was > 100 µM (inactive); in the experiment on RXF 393, > 100 µM (inactive); in the experiment on HOP-62 it was > 100 µM (inactive); in the experiment on HCC 2998, > 100 µM (inactive). Further, the GI50 was > 100 µM (inactive) in the experiment on SW-620; > 100 µM (inactive) in the experiment on Malme-3M; > 100 µM (inactive) with NCI-H460; > 100 µM (inactive) with SF-295; > 100 µM (inactive) in the experiment on KM12; 50 µM (inactive) in the experiment on UO-31. For the same molecule, the GI50 in the experiment with SNB-19, in the experiment on OVCAR-8 and in the experiment on ACHN was > 100 µM (inactive) in each case.

Take `COc1ccc(-c2cc(=O)c3ccc(O)cc3o2)c(OC)c1OC`: the GI50 is 94 µM (inactive) in the experiment on UACC-257; 31.6 µM (inactive) with HL-60; 43.4 µM (inactive) in the experiment with NCI-H23; 79.3 µM (inactive) in the experiment on 786-0; 55.7 µM (inactive) in the experiment with A549; 28.9 µM (inactive) in the experiment on RXF 393. The GI50 was 92.3 µM (inactive) in the experiment with HOP-62; 48.8 µM (inactive) in the experiment with HCC 2998; 48 µM (inactive) in the experiment with SW-620; > 100 µM (inactive) in the experiment with Malme-3M; 46.5 µM (inactive) in the experiment with SF-295; 71.1 µM (inactive) in the experiment on KM12. The GI50 with SNB-19 was 65 µM (inactive); in the experiment on ACHN it was 40.9 µM (inactive).

With `CCCCCCCCCCCC(=O)C1=C(O)CC(O)CC1=O` (stereo unspecified), the GI50 in the experiment with UACC-257 is > 100 µM (inactive); in the experiment with HL-60 it was 23.1 µM (inactive); with NCI-H23, > 100 µM (inactive); in the experiment on 786-0, > 100 µM (inactive); in the experiment on A549 it was 59.4 µM (inactive); with RXF 393, > 100 µM (inactive). In addition, the GI50 in the experiment on HOP-62 was > 100 µM (inactive); with HCC 2998, > 100 µM (inactive); with SW-620 it was > 100 µM (inactive); in the experiment on NCI-H460 it was > 100 µM (inactive); in the experiment with SF-295, 84.1 µM (inactive); in the experiment with KM12 it was 59.4 µM (inactive). Further, the GI50 in the experiment on UO-31 was 64.4 µM (inactive); with SNB-19 it was > 100 µM (inactive); in the experiment on OVCAR-8, 74.1 µM (inactive); with ACHN it was 99.8 µM (inactive).
